Several values for one entry are separate records, joined by “and”; a condition that tells them apart may be missing. Equal values may be shown once. Read-outs that look alike come from different tables or passages of the source.
How the values were obtained:
V79 cells [1] = test: cellular 210Po activity, biologic clearance and cellular dosimetry (liquid scintillation counting); assay type: cell-based, Chinese hamster; details: for intracellular 210Po activity: corresponding to 0.1 mmol/L citrate
Experimental: The absorbed dose to the cell nucleus was determined as known in the art. Since cells were treated with ^210Po-citrate as a single-cell suspension and were subsequently seeded for colony formation, the small contribution of cross-irradiation from neighboring cells in the colony can be ignored because it is essentially counterbalanced by the reduction in self-dose caused by flattening of cells during the colony forming period. The data was least-squares fitted to obtain a mean biologic half-time of 11.6 h. […] This Tc, the maintenance period of 2.5 h, the subcellular distribution of ^210Po-citrate (28% nucleus, 72% cytoplasm) for V79 cells and published S values, were used to calculate a mean absorbed dose to the cell nucleus of 5.8 Gy/mBq of ^210Po incorporated into the cell.
(§1) ^210PoCl4 in 2 mol/L HCI was obtained at 370 MBq/mL from Eckert&Ziegler Isotope Products (Valencia, CA, catalog no. 6310). ^210Po-citrate was prepared as follows. Briefly, PoCl4 solution was mixed with 1 mol/L sodium citrate in the ratio of 1:7 (final pH 5.8), and was diluted with MEMB to a volume of 4 mL (final pH 6.9). One milliliter of MEMB containing 210Po-citrate was added to the 1 mL of conditioned V79 cultures (2×10^6 cells/mL), to arrive at a concentration of 0-250 kBq/mL (pH 6.9-7.0). After incubating for 30 min, the cells were washed 2× with MEMB, resuspended in 2 mL of MEMB, and incubated on a rocker-roller for 2.5 h to simulate concomitant drug exposure. The cells were resuspended in a 5 mL of MEMB, passed 5× through a needle, and counted with a Beckman Coulter Model Z2 (Brea, CA). Aliquots (500 μL) of the cell suspension were transferred to vials, mixed with 5 mL Ecolume (MP Biomedical, Solon, OH, catalog no. 882470), and counted with a Beckman Coulter LS6500, and the mean activity per cell was determined (efficiency, 50% as per prior studies). Aliquots of about 5×10^5 cells were counted in triplicate for ^210Po activity and the cpm ranged from 10^3-10^5. The triplicate measurements kept statistical variations to a minimum. Each sample was serially diluted and plated in Falcon 60×15 mm tissue culture dishes for colony formation. Cultures were incubated for 7 days, and the colonies were fixed in 95% ethanol, stained with 0.01% Amido Black, washed in tap-water, air-dried, and counted.
To determine the biologic clearance of ^210Po from the cells, 4×10^6 cells/mL were treated with ^210Pocitrate as described above. After two washes with MEMB, the cells were resuspended in 5 mL of MEMB, passed 5× through a needle, and Coulter counted. Aliquots of 500 μL of cells were transferred to vials and mixed with Ecolume. The remaining cell suspension was plated into 25-cm^2 flasks (1.0, 0.5, 0.5, 0.2 and 0.2×10^6 cells/flask). The cultures were harvested after 24, 48, 72, and 96 h, respectively. Each sample was processed for cell counting and liquid scintillation counting as described. All vials were counted after the last harvest. The ratio of cellular activity at each time point to that immediately after treatment was calculated and plotted.

[2] = test system: Chinese hamster V79 lung fibroblasts; test: clonogenic survival assay (colony formation) after single-agent treatment; assay type: cell-based; details: for surviving fraction for drug alone: 0.63 μM daunomycin or 2.50 μM doxorubicin, 2.5 h; for mean lethal concentration: extracellular concentration for 37% survival, 2.5 h exposure
Experimental: The surviving fraction SF of cells exposed to the agent was assessed with a clonogenic survival assay and plotted as a function of several different variables including extracellular concentration, <I>net, absorbed dose (Gy), and mean cellular activity (mBq/cell). The resulting survival curves were of a 1- or 2-component exponential form. Analogous to the cellular activity and absorbed dose required to achieve 37% survival, a37 and D37, the net mean lethal fluorescence intensity of the drug required to achieve 37% survival, <I>net37 , can be defined similarly and obtained from plots of SF versus <I>net.
To evaluate ^210Po cytotoxicity, the surviving fraction was plotted as a function of EuTc-citrate net MFI, mean cellular uptake of ^210Po, and mean absorbed dose to the nucleus (FIG. 4A). […] The relationships between cell survival and EuTc-citrate net MFI or cellular ^210Po activity can be described by an exponential function SF=exp(−A/A1). The relationship between cell survival and drug net MFI (or extracellular concentration) for daunomycin and doxorubicin are illustrated in FIGS. 4B and 4C, respectively. For both drugs, clonogenic survival and cellular drug uptake (as determined by net MFI) are related via two component exponential functions SF=b exp(−A/A1)+(1-b) exp(−A/A2). A is the intracellular activity of ^210Po-citrate, absorbed dose to the cell nucleus, or drug concentration. Least squares fits of the survival data to this function were performed. The variable b is a fitted parameter.
Chinese hamster V79 lung fibroblasts were used. Two different formulations of minimum essential media (MEMA and MEMB) were used, as known in the literature. All media and supplements were Gibco (Carlsbad, CA), including fetal calf serum (catalog no. 10437, lot no. 539574). For routine maintenance, cells were grown as monolayers in Falcon 25-cm^2 tissue culture flasks (BD, Franklin Lakes, NJ, catalog no. 353082) at 37° C., 5% CO2-95% air, and subcultured twice weekly. For experiments, V79 cells (passage 4-11) were transferred into Falcon 225-cm^2 flasks (BD, catalog no. 353138), and were used upon reaching 80%-90% confluence.
Cells grown in 225-cm^2 flasks were trypsinized (0.25% trypsin, Gibco, catalog no. 25200-056), and MEMB was added to obtain 2×10^6 cells/mL. Aliquots of 1 mL were placed in Falcon 17×100 mm polypropylene tubes (BD, catalog no. 352018) and placed on a rocker-roller (Thermo Fisher, Fair Lawn, NJ) for 3 hours at 37° C. with 5% CO2 and 95% air. After this conditioning period, cells were treated with drug or radiochemical. Cell cultures were exposed to radiochemical and drugs for 0.5 and 2.5 h, respectively.
as §1, with “Each sample was serially diluted and plated in Falcon 60×15 mm tissue culture dishes for colony formation. Cultures were incubated for 7 days, and the colonies were fixed in 95% ethanol, stained with 0.01% Amido Black, washed in tap-water, air-dried, and counted.” left out

[3] = test system: Chinese hamster V79 lung fibroblasts; details: obtained previously, older S values; cited from earlier work
V79 cells [4] = test: clonogenic survival after combined treatment with 210Po-citrate and a chemotherapy drug; assay type: cell-based, Chinese hamster; details: for effect on radiotoxicity of 210Po-citrate α-particles: 0.63 μM daunomycin or 2.50 μM doxorubicin plus graded 210Po-citrate, corrected for drug toxicity
Experimental: as §1
After conditioning, the cell cultures were treated with daunomycin (Sigma, catalog no. D8809) or doxorubicin (Sigma, catalog no. 44583) to a final concentration of 0-10 μmol/L in MEMB. The tubes were returned to the rocker-roller for 2.5 h. The cells were then processed for colony formation as described above.
To evaluate cytotoxicity of combined treatment of V79 cells with ^210Po-citrate and daunomycin, or ^210Po-citrate and doxorubicin, the surviving fraction of clonogens was plotted as a function of mean cellular uptake of ^210Po (FIG. 9) and as a function of mean absorbed dose to the cell nucleus. When cells were only treated with ^210Po-citrate, the survival curve can be described by a 1-component exponential function. When cells were concomitantly treated with a single drug concentration and varying amounts of ^210Po-citrate, the dose-response curves followed a 2-component exponential function. The data corresponding to the combined treatments were then corrected for drug toxicity, by dividing the surviving fraction for each datum point by the surviving fraction for drug alone (SF=0.10), and replotted in FIG. 9. Both of the corrected cell survival curves emerged below those obtained for ^210Po-citrate alone.

V79 cells [5] = test: cellular uptake by flow cytometry (fluorescence intensity per cell, MFI); assay type: cell-based, Chinese hamster; details: linear least squares fit; for slope of net MFI versus extracellular drug concentration, low concentrations: Cdauno<0.6 μmol/L, Cdoxo<1 μmol/L; for slope of net MFI versus extracellular drug concentration, high concentrations: Cdauno>0.6 μmol/L (+1161), Cdoxo>1 μmol/L (+29)
Experimental: Briefly, flow cytometry was used to quantify their mean fluorescence intensity (MFI) per cell, <I>, as a function of the concentration of the agent in the cell culture medium. The net mean fluorescence intensities per cell, <I>net, were determined by subtracting control autofluorescence <I>control, according to the following equation: […]
^210Po-Citrate. The uptake of ^210Po-citrate was determined on a cell-by-cell basis by flow cytometric techniques, using ^210Po-free citrate. Briefly, V79 cells (2×10^6 cells/mL) were treated with 0-3 mmol/L of citrate and incubated on a rocker-roller as described earlier. Cellular uptake of citrate was tracked using an europium tetracycline (EuTc) conjugate. Samples were washed 2× with 10 mmol/L MOPS buffer (Sigma, St. Louis, catalog no. M3183), after a 30 min exposure to citrate. The cells were resuspended in 1 mL of MOPS buffer containing EuTc (Sigma, catalog nos. 203254 for Eu and T7660 for Tc), transferred into 7 ml polystyrene flow cytometry tubes (BD, catalog no. 352054), and were incubated at room temperature (˜22° C.) in the dark for 30 min. The final concentration of EuTc was 100 μmol/L. EuTc forms a ternary complex with citrate (EuTc-citrate) which is excitable at 488 nm, and its emission can be captured within the wavelengths transmitted by the 610/20 filter. After washing 2× with MOPS buffer, the samples were resuspended in 1 mL of MOPS buffer, passed 5× through a 21-gauge needle, and were analyzed by flow cytometry using an LSR II flow cytometer (BD), equipped with a 488 nm laser. Cellular incorporation of citrate, expressed in terms of the fluorescence intensity per cell or mean fluorescence intensity (MFI) of EuTc-citrate, was used as a surrogate measure cellular uptake of ^210Po-citrate.
To determine the cellular uptake of daunomycin and doxorubicin, the cells were treated with 0-10 μmol/L of each drug in MEMB and incubated on a rocker-roller for 2.5 h. The cells were washed 2× with phosphate buffered saline (PBS), resuspended in 1 mL of PBS, passed 5× through a needle, and were immediately subjected to flow cytometric analysis. The 488 nm laser was used to excite intracellular daunomycin and doxorubicin, and the emission spectra were captured within the wavelengths transmitted by the 575/26 and 530/30 filters, respectively. Cellular incorporation of drugs was also expressed as MFI.

[6] = test system: MDA-MB-468 human breast cancer cell line grown as spheroids; details: cited from earlier work
[7] = 0.63 μM daunomycin + 210Po-citrate

^210Po-citrate
subcellular distribution, cytoplasm (V79 cells [1]; V79 cells): 72%
subcellular distribution, nucleus (V79 cells [1]; V79 cells): 28%
mean biologic half-time (V79 cells [1]; clearance of 210Po from V79 cells): 11.6 h
intracellular 210Po activity (V79 cells [1]): 0.03 mBq/cell
intracellular 210Po activity (V79 cells [1]; listed as 210Po): 0.03 mBq/cell and ~0.02 mBq/cell
effective half-time Te (V79 cells [1]; from biologic half-time and physical half-life of 138 d): 11.6 h
cell kill at this activity ([2]; 0.1 mmol/L citrate): no significant cell kill
atoms of 210Po corresponding to the mean lethal uptake ([2]; 0.21 mBq/cell): about 3600 atoms
uptake giving the mean lethal absorbed dose ([2]; V79 cells): 0.21 mBq/cell
mean lethal absorbed dose ([2]; absorbed dose to the cell nucleus, V79 cells): 1.2 Gy
cell killing observed ([2]; over the range of cellular activities employed): less than 2 logs
former value of mean lethal dose [3]: 0.7 Gy

COc1cccc2c1C(=O)c1c(O)c3c(c(O)c1C2=O)C[C@@](O)(C(=O)CO)C[C@@H]3O[C@H]1C[C@H](N)[C@H](O)[C@H](C)O1 [doxorubicin]
surviving fraction for drug alone [2]: 0.10
mean lethal concentration ([2]; V79 cells): 1.26 µmol/L
effect on radiotoxicity of 210Po-citrate α-particles (V79 cells [4]): enhance the radiotoxicity of α-particles
dose dependence of the increased kill (V79 cells [4]; 2.50 μM doxorubicin + 210Po-citrate): dose-dependent increase
slope of net MFI versus extracellular drug concentration, low concentrations (V79 cells [5]): 61 (μmol/L)^−1
slope of net MFI versus extracellular drug concentration, high concentrations (V79 cells [5]): 40 (μmol/L)^−1

COc1cccc2c1C(=O)c1c(O)c3c(c(O)c1C2=O)C[C@@](O)(C(C)=O)C[C@@H]3O[C@H]1C[C@H](N)[C@H](O)[C@H](C)O1 [daunomycin]
surviving fraction for drug alone [2]: 0.10
mean lethal concentration ([2]; V79 cells): 0.24 µmol/L
lethality relative to doxorubicin ([2]; low extracellular concentrations, V79 cells): ~5 ×
absorbed dose beyond which the enhancement was independent of dose (V79 cells [4]; [7]): about 0.5 Gy
cellular activity beyond which the enhancement was independent of dose (V79 cells [4]; [7]): ~0.09 mBq/cell
effect on radiotoxicity of 210Po-citrate α-particles (V79 cells [4]): enhance the radiotoxicity of α-particles
slope of net MFI versus extracellular drug concentration, low concentrations (V79 cells [5]): 5922 (μmol/L)^−1
slope of net MFI versus extracellular drug concentration, high concentrations (V79 cells [5]): 2480 (μmol/L)^−1

111In-DTPA-human epidermal growth factor [^111In-EGF]
activity distribution, cell surface ([6]; 24 h treatment): 62%
activity distribution, cytoplasm ([6]; 24 h treatment): 22%
activity distribution, nucleus ([6]; 24 h treatment): 16%
distribution of 111In in the spheroid ([6]; after a 24-h treatment): fully internalized
penetration into the spheroid ([6]; after a 1 h treatment): ~20 μm
distribution of 111In in the spheroid ([6]; treated for 1 h): accumulated mainly on the periphery of the spheroid

Source: patent US20240115881A1, “METHODS AND SYSTEMS FOR DETERMINING THE DISTRIBUTION OF RADIATION DOSE AND RESPONSE” (priority 2022, published 2024)
